Test results: US20150031674A1, “SERINE/THREONINE KINASE INHIBITORS” (GENENTECH, INC., priority 2013, published 2015)

Molecular target: human recombinant PAK1-KD protein (Homo sapiens, UniProt Q13153)
Test: PAK1-KD (Kinase Domain) IC50 Zlyte Assay (FRET peptide substrate phosphorylation)
Settings: Z'-LYTE, Biological Example 1

Sequence of human recombinant PAK1-KD protein (Q13153 270-521 limits assumed): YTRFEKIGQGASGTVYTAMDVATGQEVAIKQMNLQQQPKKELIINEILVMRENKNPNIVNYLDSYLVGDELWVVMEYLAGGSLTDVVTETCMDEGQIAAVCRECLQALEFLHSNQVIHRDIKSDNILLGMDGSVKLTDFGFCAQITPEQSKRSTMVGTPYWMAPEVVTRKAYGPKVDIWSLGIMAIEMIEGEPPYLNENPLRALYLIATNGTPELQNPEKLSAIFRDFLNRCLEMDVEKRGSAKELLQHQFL

| Structure (SMILES) | Ki [nM] |
| --- | --- |
| CCNc1ncc2cc(-c3ccc(-c4cccc(C)n4)cc3Cl)c(=O)n(CCN3CCNCC3)c2n1 [Example I-66, 6-(2-Chloro-4-(6-methylpyridin-2-yl)phenyl)-2-(ethylamino)-8-(2-(piperazin-1-yl)ethyl)pyrido[2,3-d]pyrimidin-7(8H)-one] | 0.9 |
| CCNc1ncc2cc(-c3ccc(-c4cncc(C)n4)cc3Cl)c(=O)n(C3COC4(CNC4)C3)c2n1 (stereo not shown) [Example I-58, 6-(2-Chloro-4-(6-methylpyrazin-2-yl)phenyl)-2-(ethylamino)-8-(5-oxa-2-azaspiro[3.4]octan-7-yl)pyrido[2,3-d]pyrimidin-7(8H)-one] | 71.1 |
| CCNc1ncc2cc(-c3ccc(-c4cccc(C)n4)cc3C)c(=O)n(CCCCO)c2n1 [Example I-73, 2-(Ethylamino)-8-(4-hydroxybutyl)-6-[2-methyl-4-(6-methyl-2-pyridyl)phenyl]pyrido[2,3-d]pyrimidin-7-one] | 18.9 |
| CCNc1ncc2cc(-c3ccc(-c4cncc(C)n4)cc3Cl)c(=O)n(CCC(O)CO)c2n1 (stereo in doubt) [Example I-79, (R)-6-(2-Chloro-4-(6-methylpyrazin-2-yl)phenyl)-8-(3,4-dihydroxybutyl)-2-(ethylamino)pyrido[2,3-d]pyrimidin-7(8H)-one] | 43.5 |
| CCc1cc(-c2cncc(C)n2)ccc1-c1cc2cnc(NC)nc2n(CCOCCN)c1=O [Example I-129, 8-[2-(2-aminoethoxy)ethyl]-6-[2-ethyl-4-(6-methylpyrazin-2-yl)phenyl]-2-(methylamino)pyrido[2,3-d]pyrimidin-7-one] | 27.5 |
| Cc1cncc(-c2ccc(-c3cc4cnc(NC5(C)COC5)nc4n(CCCC(N)=O)c3=O)c(Cl)c2)n1 [Example I-41, 4-[6-[2-Chloro-4-(6-methylpyrazin-2-yl)phenyl]-2-[(3-methyloxetan-3-yl)amino]-7-oxo-pyrido[2,3-d]pyrimidin-8-yl]butanamide] | 31 |
| Cc1cccc(-c2ccc(-c3cc4cnc(NC5COC5)nc4n(CCCS(N)(=O)=O)c3=O)c(C)c2)n1 [Example I-161, 3-[6-[2-methyl-4-(6-methyl-2-pyridyl)phenyl]-2-(oxetan-3-ylamino)-7-oxo-pyrido[2,3-d]pyrimidin-8-yl]propane-1-sulfonamide] | 22 |
| CNc1ncc2cc(-c3ccc(-c4cccc(C)n4)cc3C)c(=O)n(CCCO)c2n1 [Example I-132, 8-(3-hydroxypropyl)-2-(methylamino)-6-[2-methyl-4-(6-methyl-2-pyridyl)phenyl]pyrido[2,3-d]pyrimidin-7-one] | 14.5 |
| CCNc1ncc2cc(-c3ccc(-c4cncc(C)n4)cc3Cl)c(=O)n(CCC3CCNC(=O)C3)c2n1 (stereo not shown) [Example I-53, 6-[2-chloro-4-(6-methylpyrazin-2-yl)phenyl]-2-(ethylamino)-8-[2-(2-oxo-4-piperidyl)ethyl]pyrido[2,3-d]pyrimidin-7-one] | 96.2 |
| Cc1cncc(-c2ccc(-c3cc4cnc(NCC(F)F)nc4n(CCOC4CNC4)c3=O)c(Cl)c2)n1 [Example I-47, 8-[2-(azetidin-3-yloxy)ethyl]-6-[2-chloro-4-(6-methylpyrazin-2-yl)phenyl]-2-(2,2-difluoroethylamino)pyrido[2,3-d]pyrimidin-7-one] | 25.2 |
| Cc1cccc(-c2ccc(-c3cc4cnc(NC5COC5)nc4n(C[C@H]4CNCCO4)c3=O)c(Cl)c2)n1 [Example I-159, 6-[2-Chloro-4-(6-methyl-2-pyridyl)phenyl]-8-[[(2R)-morpholin-2-yl]methyl]-2-(oxetan-3-ylamino)pyrido[2,3-d]pyrimidin-7-one] | 10.8 |
| Cc1cccc(-c2ccc(-c3cc4cnc(N)nc4n(CCCN)c3=O)c(C)c2)n1 [Example I-72, 2-Amino-8-(3-aminopropyl)-6-[2-methyl-4-(6-methyl-2-pyridyl)phenyl]pyrido[2,3-d]pyrimidin-7-one] | 21.1 |
| CNc1ncc2cc(-c3ccc(-c4cccc(C)n4)cc3C)c(=O)n(C[C@H]3CNCCO3)c2n1 [Example I-148, 2-(Methylamino)-6-[2-methyl-4-(6-methyl-2-pyridyl)phenyl]-8-[[(2R)-morpholin-2-yl]methyl]pyrido[2,3-d]pyrimidin-7-one] | 7.3 |
| CNc1ncc2cc(-c3ccc(-c4nc(C)cs4)cc3Cl)c(=O)n(C[C@H]3CNCCO3)c2n1 [Example I-189, 6-[2-chloro-4-(4-methylthiazol-2-yl)phenyl]-2-(methylamino)-8-[[(2R)-morpholin-2-yl]methyl]pyrido[2,3-d]pyrimidin-7-one] | 25.8 |
| CCNc1ncc2cc(-c3ccc(-c4cncc(C)n4)cc3Cl)c(=O)n(C3CCN(C(=O)CN)CC3)c2n1 [Example I-29, 8-(1-(2-Aminoacetyl)piperidin-4-yl)-6-(2-chloro-4-(6-methylpyrazin-2-yl)phenyl)-2-(ethylamino)pyrido[2,3-d]pyrimidin-7(8H)-one] | 17.1 |
| CNc1ncc2cc(-c3ccc(-c4cncc(C)n4)cc3Cl)c(=O)n(CC(=O)N[C@@H]3CCNC3)c2n1 [Example I-151, 2-[6-[2-Chloro-4-(6-methylpyrazin-2-yl)phenyl]-2-(methylamino)-7-oxo-pyrido[2,3-d]pyrimidin-8-yl]-N-[(3R)-pyrrolidin-3-yl]acetamide] | 12.4 |

| Structure (SMILES) | Ki [nM] |
| --- | --- |
| Cc1cccc(-c2ccc(-c3cc4cnc(NC5COC5)nc4n(C[C@H]4CC[C@H](N)CC4)c3=O)c(Cl)c2)n1 [Example I-33, 8-(((1r,4r)-4-aminocyclohexyl)methyl)-6-(2-chloro-4-(6-methylpyridin-2-yl)phenyl)-2-(oxetan-3-ylamino)pyrido[2,3-d]pyrimidin-7(8H)-one] | 0.5 |
| Cc1cncc(-c2ccc(-c3cc4cnc(NC5COC5)nc4n(C[C@H]4CNCCO4)c3=O)c(Cl)c2)n1 [Example I-146, 6-[2-Chloro-4-(6-methylpyrazin-2-yl)phenyl]-8-[[(2R)-morpholin-2-yl]methyl]-2-(oxetan-3-ylamino)pyrido[2,3-d]pyrimidin-7-one] | 10.7 |
| CCNc1ncc2cc(-c3ccc(-c4cncc(C)n4)cc3Cl)c(=O)n(C(C)COC3CNC3)c2n1 (single isomer, unassigned) [Example I-119, 8-[2-(azetidin-3-yloxy)-1-methyl-ethyl]-6-[2-chloro-4-(6-methylpyrazin-2-yl)phenyl]-2-(ethylamino)pyrido[2,3-d]pyrimidin-7-one] | 77 |
| CCNc1ncc2cc(-c3ccc(-c4cncc(C)n4)cc3Cl)c(=O)n(CCN3CCN(C4COC4)CC3)c2n1 [Example I-23, 6-(2-chloro-4-(6-methylpyrazin-2-yl)phenyl)-2-(ethylamino)-8-(2-(4-(oxetan-3-yl)piperazin-1-yl)ethyl)pyrido[2,3-d]pyrimidin-7(8H)-one] | 136 |
| CCNc1ncc2cc(-c3ccc(-c4cncc(C)n4)cc3Cl)c(=O)n(CC(=O)N3CCOCC3)c2n1 [Example I-26, 6-[2-chloro-4-(6-methylpyrazin-2-yl)phenyl]-2-(ethylamino)-8-(2-morpholino-2-oxo-ethyl)pyrido[2,3-d]pyrimidin-7-one] | 137 |
| CCNc1ncc2cc(-c3ccc(-c4cncc(C)n4)cc3Cl)c(=O)n(CCC(N)=O)c2n1 [Example I-69, 3-[6-[2-chloro-4-(6-methylpyrazin-2-yl)phenyl]-2-(ethylamino)-7-oxo-pyrido[2,3-d]pyrimidin-8-yl]propanamide] | 103 |
| CNc1ncc2cc(-c3ccc(-c4cccc(C)n4)cc3Cl)c(=O)n(CCC3CNCCO3)c2n1 (single isomer, unassigned) [Example I-125, 6-(2-chloro-4-(6-methylpyridin-2-yl)phenyl)-2-(methylamino)-8-(2-(morpholin-2-yl)ethyl)pyrido[2,3-d]pyrimidin-7(8H)-one] | 4.7 |
| CNc1ncc2cc(-c3ccc(-c4cccc(C)n4)cc3Cl)c(=O)n(CCOC3CN(C)C3)c2n1 [Example I-196, 6-[2-chloro-4-(6-methyl-2-pyridyl)phenyl]-2-(methylamino)-8-[2-(1-methylazetidin-3-yl)oxyethyl]pyrido[2,3-d]pyrimidin-7-one] | 18.5 |
| CNc1ncc2cc(-c3ccc(-c4cccc(C)n4)cc3Cl)c(=O)n(CCS(=O)(=O)N3CCNCC3)c2n1 [Example I-141, 6-[2-chloro-4-(6-methyl-2-pyridyl)phenyl]-2-(methylamino)-8-(2-piperazin-1-ylsulfonylethyl)pyrido[2,3-d]pyrimidin-7-one] | 4 |
| CNc1ncc2cc(-c3ccc(-c4cncc(C)n4)cc3Cl)c(=O)n(CCOC3CNC3)c2n1 [Example I-46, 8-[2-(azetidin-3-yloxy)ethyl]-6-[2-chloro-4-(6-methylpyrazin-2-yl)phenyl]-2-(methylamino)pyrido[2,3-d]pyrimidin-7-one] | 13.9 |
| CNc1ncc2cc(-c3ccc(-c4cncc(C)n4)cc3Cl)c(=O)n(CC[C@H]3OC[C@H](N)CO3)c2n1 [Example I-177, 8-[2-(5-amino-1,3-dioxan-2-yl)ethyl]-6-[2-chloro-4-(6-methylpyrazin-2-yl)phenyl]-2-(methylamino)pyrido[2,3-d]pyrimidin-7-one] | 6.82 |
| CNc1ncc2cc(-c3ccc(-c4cncc(C)n4)cc3Cl)c(=O)n(CC[C@@H](O)CO)c2n1 [Example I-80, 6-(2-Chloro-4-(6-methylpyrazin-2-yl)phenyl)-8-(3,4-dihydroxybutyl)-2-(methylamino)pyrido[2,3-d]pyrimidin-7(8H)-one] | 104 |
| CNc1ncc2cc(-c3ccc(-c4cncc(C)n4)cc3Cl)c(=O)n(CCC3CCNC3=O)c2n1 (single isomer, unassigned) [Example I-103, 6-[2-Chloro-4-(6-methylpyrazin-2-yl)phenyl]-2-(methylamino)-8-[2-(2-oxopyrrolidin-3-yl)ethyl]pyrido[2,3-d]pyrimidin-7-one] | 19 |
| CNc1ncc2cc(-c3ccc(-c4cccc(C)n4)cc3C)c(=O)n(CCN3CCOCC3)c2n1 [Example I-165, 2-(Methylamino)-6-[2-methyl-4-(6-methyl-2-pyridyl)phenyl]-8-(2-morpholinoethyl)pyrido[2,3-d]pyrimidin-7-one] | 16.7 |
| CNc1ncc2cc(-c3ccc(-c4cccc(C)n4)cc3C)c(=O)n(CCOCCN)c2n1 [Example I-97, 8-[2-(2-Aminoethoxy)ethyl]-2-(methylamino)-6-[2-methyl-4-(6-methyl-2-pyridyl)phenyl]pyrido[2,3-d]pyrimidin-7-one] | 3.6 |
